From article PMC6152678, “In Vitro Comparative Study of the Inhibitory Effects of Mangiferin and Its Aglycone Norathyriol towards UDP-Glucuronosyl Transferase (UGT) Isoforms” (Molecules : A Journal of Synthetic Chemistry and Natural …, 2017)

Experiments:
[1] = target: T1, UGT1A1 (Homo sapiens, UniProt P22309); experiment: Inhibition of recombinant UGT-catalyzed 4-MU glucuronidation; type: biochemical; details: pH 7.4, probe 4-methylumbelliferone (4-MU), 110 μM, 100 μM compound, 4-MU probe substrate, negative = activation
T1 construct: purchased BD Gentest Corp. (Woburn, MA, USA); host or cells: baculovirus-infected insect cells
T1 sequence (P22309 26-533): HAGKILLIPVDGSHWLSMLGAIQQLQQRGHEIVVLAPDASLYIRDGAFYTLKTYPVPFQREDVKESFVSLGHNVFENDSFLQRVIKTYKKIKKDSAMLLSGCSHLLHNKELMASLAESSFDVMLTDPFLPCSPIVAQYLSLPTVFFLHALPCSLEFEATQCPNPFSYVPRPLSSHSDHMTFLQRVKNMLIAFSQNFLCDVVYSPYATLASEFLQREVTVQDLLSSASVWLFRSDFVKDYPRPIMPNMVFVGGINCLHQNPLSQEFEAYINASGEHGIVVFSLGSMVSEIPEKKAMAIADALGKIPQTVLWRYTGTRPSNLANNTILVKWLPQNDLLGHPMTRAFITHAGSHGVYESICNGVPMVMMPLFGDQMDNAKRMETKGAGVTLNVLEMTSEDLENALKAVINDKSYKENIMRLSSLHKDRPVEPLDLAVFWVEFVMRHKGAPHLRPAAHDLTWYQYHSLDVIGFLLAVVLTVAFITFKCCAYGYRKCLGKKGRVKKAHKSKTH
Description: (§1) Sigma-Aldrich (St Louis, MO, USA) provided the following constituents in the incubation mixture: 4-methylumbelliferone (4-MU), 4-methylumbelliferone-β-D-glucuronide (4-MUG), Tris-HCl, 7-hydroxycoumarin, and uridine-diphosphoglucuronic acid (UDPGA) (trisodium salt). All other compounds were of high-performance liquid chromatography (HPLC) grade or of the highest grade commercially available. For enzyme sources, recombinant UGT isoforms expressed in baculovirus-infected insect cells were purchased from BD Gentest Corp. (Woburn, MA, USA), including UGT1A1, 1A3, 1A6, 1A7, 1A8, 1A9, 1A10, 2B4, 2B7, 2B15, and 2B17.
(§2) 4-MU, a nonspecific probe substrate for all the UGT isoforms, was employed to investigate the inhibition of MEF and NIR towards the activity of UGT isoforms. The incubation and analytical methods have been previously described. […] MEF and NIR were dissolved in the DMSO to make a stock solution of 20 mM, and various concentrations of working solutions were prepared through dilution with DMSO. 4-MU was used as a non-selective substrate of UGTs. There was a 5-min pre-incubation step at 37 °C before the reaction was initiated by the addition of UDPGA. 4-MU and inhibitors were previously dissolved in DMSO, and the total concentration of DMSO was 1%. The reactions were continued at 37 °C for 120 min for UGT1A1, UGT1A3, UGT1A10, UGT2B4, UGT2B7, UGT2B15 and UGT2B17, 30 min for UGT1A6, UGT1A7, UGT1A8, and UGT1A9, respectively. Reactions were terminated by the addition of 100 μL acetonitrile with 7-hydroxycoumarin (100 μM) as internal standard. The incubation mixtures were then centrifuged at 12,000 r/min for 10 min. 2 μL supernatant was injected into the UPLC system for analysis. An ACQUITY UPLC System (Waters, Milford, MA, USA) equipped with UV detector was used to analyze the samples, and the separation of all the compounds were carried out using a ACQUITY UPLC® BEH C18 (2.1 × 100 mm, 1.7 μm Waters) at a flow rate of 0.2 mL/min and UV detector at 316 nm. The mobile phase was consisted of ultrapure water containing 0.5% formic acid (A) and acetonitrile (B). The following gradient condition was used: 0–3.5 min, 10–65% B; 3.5–4.0 min, 65% B; 4.0–9.0 min, 10% B. To calculate the standard curve 0.1–100 μM of 4-MUG was used through drawing the peak area ration of 4-MUG/internal standard towards the concentration range of 4-MUG. The curve was linear over this concentration range, with an r^2 value > 0.99.
(§3) The inhibition type and Kinetics were determined for the inhibition of NTR towards UGT1A3, UGT1A7 and UGT1A9. The glucuronidation velocity of 4-MU was determined at multiple concentrations of 4-MU and NTR. Dixon and Lineweaver–Burk plots were employed to determine the inhibition type, and the second plot of the slopes from the Lineweaver–Burk plot versus the compound concentrations was utilized to calculate the Ki value. The determination of IC50 was calculated using Probit analysis in SPSS11.5 (SPSS, Chicago, IL, USA). The Student’s t-test was adopted at a significance level of p < 0.05 to determine statistically significant differences among experimental groups.

[2] = target: T2, UGT1A8 (Homo sapiens, UniProt Q9HAW9); experiment: as above; type: biochemical; details: pH 7.4, probe 4-methylumbelliferone (4-MU), 750 μM, 100 μM compound, 4-MU probe substrate, negative = activation
T2 construct: purchased BD Gentest Corp. (Woburn, MA, USA); host or cells: baculovirus-infected insect cells
T2 sequence (Q9HAW9 26-530): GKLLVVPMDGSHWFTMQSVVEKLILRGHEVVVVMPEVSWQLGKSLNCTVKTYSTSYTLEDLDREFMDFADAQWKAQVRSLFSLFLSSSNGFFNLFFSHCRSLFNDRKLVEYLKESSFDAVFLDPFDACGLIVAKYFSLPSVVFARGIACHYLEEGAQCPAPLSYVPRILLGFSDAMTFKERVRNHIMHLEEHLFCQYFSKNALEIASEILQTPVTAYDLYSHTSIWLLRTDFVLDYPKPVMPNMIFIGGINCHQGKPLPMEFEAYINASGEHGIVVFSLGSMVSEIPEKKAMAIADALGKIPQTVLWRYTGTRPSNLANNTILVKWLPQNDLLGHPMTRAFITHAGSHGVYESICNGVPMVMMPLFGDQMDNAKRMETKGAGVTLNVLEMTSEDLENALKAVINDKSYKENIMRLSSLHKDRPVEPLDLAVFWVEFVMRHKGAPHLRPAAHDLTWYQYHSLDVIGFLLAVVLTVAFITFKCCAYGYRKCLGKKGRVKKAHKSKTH
Description: as §1, §2, §3

[3] = design: method as in PMID 27130074; details: after administration of 200 mg/kg MGF; cited from earlier work

inhibition at 120 min, 100 µM [1]	inhibition at 30 min, 100 µM [2]	Structure (SMILES)	AUCNTR/AUCMGF [3]	Cmax [3]
50.8%	57%	O=c1c2cc(O)c(O)cc2oc2cc(O)cc(O)c12 [NTR, 1,3,6,7-tetrahydroxyxanthone]	< 3%	< 3 ng/mL
14.5%	-70.9%	O=c1c2cc(O)c(O)cc2oc2cc(O)c([C@@H]3O[C@H](CO)[C@@H](O)[C@H](O)[C@H]3O)c(O)c12 [MGF, 1,3,6,7-tetrahydroxyxanthone-C-2-β-D-glucoside]		202.58 ng/mL
